Experimental data published in patent publication US9663496B2, “AMPK-activating heterocyclic compounds and methods for using the same” (Rigel Pharmaceuticals, Inc., priority 2010, dated 2017).

Biological target: AMPK
Experiment: AMPK activation, enzyme-linked immunosorbent assay
Assay type: biochemical
Details: EC50 for AMPK activation, ELISA
How it was run: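 Read-out: immunodetected kinase activation after compound exposure, run with commercial kit reagents.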

SMILES	EC50
N#Cc1ccc(OC2CCN(C(=O)c3ccc(C(=O)N[C@H]4CC[C@@H](Oc5ccc(C(F)(F)F)cc5)CC4)nc3)CC2)cc1 [Compound 193, 5-(4-(4-cyanophenoxy)piperidine-1-carbonyl)-N-((cis)-4-(4-(trifluoromethyl)phenoxy)cyclohexyl) picolinamide]	< 500 nM
COc1ccc(C(=O)C2CCN(C(=O)c3ccc(C(=O)NC4CCN(Cc5ccc(C#N)cc5)CC4)nc3)CC2)cc1 [Compound 129, N-(1-(4-cyanobenzyl)piperidin-4-yl)-5-(4-(4-methoxybenzoyl)piperidine-1-carbonyl)picolinamide]	< 500 nM
N#Cc1ccc(O[C@H]2CC[C@@H](NC(=O)c3ccc(C(=O)N4CCC(Oc5ccc(F)cc5)CC4)cn3)CC2)cc1 [Compound 167, N-((cis)-4-(4-cyanophenoxy)cyclohexyl)-5-(4-(4-fluorophenoxy)piperidine-1-carbonyl)picolinamide]	< 500 nM
N#Cc1ccc(CN2CCC(NC(=O)c3ccc(C(=O)N4CCC(C(=O)c5ccc(N6CCOCC6)cc5)CC4)cn3)CC2)cc1 [Compound 376, N-(1-(4-cyanobenzyl)piperidin-4-yl)-5-(4-(4-morpholinobenzoyl)piperidine-1-carbonyl)picolinamide]	< 500 nM
N#Cc1ccc(CN2CCC(NC(=O)c3cnc(C(=O)N4CCC(C(=O)c5ccc(N6CCCC6)cc5)CC4)cn3)CC2)cc1 [Compound 219, N-(1-(4-cyanobenzyl)piperidin-4-yl)-5-(4-(4-(pyrrolidin-1-yl)benzoyl)piperidine-1-carbonyl)pyrazine-2-carboxamide]	< 500 nM
N#Cc1ccc(Oc2ccc(NC(=O)c3ccc(C(=O)N4CCC(Oc5ccc(S(F)(F)(F)(F)F)cc5)CC4)nc3)cn2)cc1 [Compound 497, N-(6-(4-cyanophenoxy)pyridin-3-yl)-6-(4-(4-(pentafluorosulfanyl)phenoxy)piperidine-1-carbonyl)nicotinamide]	< 500 nM
O=C(Nc1ccc(Oc2ccc(F)cc2)nc1)c1cnc(C(=O)N2CCC(C(=O)c3ccc(F)cc3F)CC2)cn1 [Compound 206, 5-(4-(2,4-difluorobenzoyl)piperidine-1-carbonyl)-N-(6-(4-fluorophenoxy)pyridin-3-yl)pyrazine-2-carboxamide]	< 500 nM
CS(=O)(=O)c1ccc(OC2CCN(C(=O)c3ccc(C(=O)Nc4ccc(S(=O)(=O)c5ccc(F)cc5)nc4)nc3)CC2)cc1 [Compound 261, N-(6-(4-fluorophenylsulfonyl)pyridin-3-yl)-5-(4-(4-(methylsulfonyl)phenoxy)piperidine-1-carbonyl)picolinamide]	< 500 nM
O=C(Nc1ccc(Oc2ccc(F)cc2)nc1)c1ccc(C(=O)N2CCC(Oc3ccc(C(=O)C4CC4)cc3)CC2)nc1 [Compound 457, 6-(4-(4-(cyclopropanecarbonyl)phenoxy)piperidine-1-carbonyl)-N-(6-(4-fluorophenoxy)pyridin-3-yl)nicotinamide]	< 500 nM
O=C(c1ccc(C(=O)N2CCN(Cc3ccccc3)CC2)nc1)N1CCN(Cc2ccccc2)CC1 [Compound 73, pyridine-2,5-diylbis((4-benzylpiperazin-1-yl)methanone)]	5000 to 10000 nM
COc1ccc(OC2CCN(C(=O)c3ccc(C(=O)NC4CCN(Cc5ccc(C#N)cc5)CC4)cn3)CC2)c(N(C)C)c1 [Compound 385, N-(1-(4-cyanobenzyl)piperidin-4-yl)-6-(4-(2-(dimethylamino)-4-methoxyphenoxy)piperidine-1-carbonyl)nicotinamide]	> 10000 nM
CS(=O)(=O)c1ccc(CN2CCC(NC(=O)c3ccc(C(=O)N4CCC(C(=O)c5ccc(F)cc5F)CC4)nc3)CC2)cc1 [Compound 213, 6-(4-(2,4-difluorobenzoyl)piperidine-1-carbonyl)-N-(1-(4-(methylsulfonyl)benzyl)piperidin-4-yl)nicotinamide]	< 500 nM
N#Cc1ccc(CN2CCC(NC(=O)c3ccc(C(=O)N4CCCCC4Cc4ccc(F)cc4)cn3)CC2)cc1 (centres unmarked) [Compound 153, N-(1-(4-cyanobenzyl)piperidin-4-yl)-5-(2-(4-fluorobenzyl)piperidine-1-carbonyl)picolinamide]	1000 to 5000 nM
N#Cc1ccc(CN2CCC(NC(=O)c3ccc(C(=O)N4CCC(C(=O)c5ccc(N6CCCC6)cc5)CC4)nc3)CC2)cc1F [Compound 447, N-(1-(4-cyano-3-fluorobenzyl)piperidin-4-yl)-6-(4-(4-(pyrrolidin-1-yl)benzoyl)piperidine-1-carbonyl)nicotinamide]	< 500 nM
COc1ccc(C(=O)C2CCN(C(=O)c3ccc(C(=O)NC4CCN(Cc5cccc(OC)c5)CC4)cn3)CC2)cc1 [Compound 425, 6-(4-(4-methoxybenzoyl)piperidine-1-carbonyl)-N-(1-(3-methoxybenzyl)piperidin-4-yl)nicotinamide]	< 500 nM
COc1ccc(C(=O)C2CCN(C(=O)c3ccc(C(=O)N[C@@H]4CCN(Cc5csc(C)n5)C[C@@H]4F)cn3)CC2)cc1 [Compound 427, N-((3S,4R)-3-fluoro-1-((2-methylthiazol-4-yl)methyl)piperidin-4-yl)-6-(4-(4-methoxybenzoyl)piperidine-1-carbonyl)nicotinamide]	1000 to 5000 nM

SMILES	EC50
O=C(Nc1ccc(Oc2ccc(F)cc2)nc1)c1ccc(C(=O)N2CCC(Oc3cccc(NC(=O)C4CC4)c3)CC2)nc1 [Compound 433, 6-(4-(3-(cyclopropanecarboxamido)phenoxy)piperidine-1-carbonyl)-N-(6-(4-fluorophenoxy)pyridin-3-yl)nicotinamide]	< 500 nM
O=C(NC1CCN(Cc2ccccc2)CC1)c1ccc(C(=O)N2CCN(c3ccncc3)CC2)cn1 [Compound 96, N-(1-benzylpiperidin-4-yl)-5-(4-(pyridin-4-yl)piperazine-1-carbonyl)picolinamide]	> 10000 nM
N#Cc1ccc(CN2CCC(NC(=O)c3ccc(C(=O)N4CCC(Oc5ccc(S(=O)(=O)C(F)(F)F)cc5)CC4)nc3)C(F)C2)cc1 (stereo in doubt) [Compound 451, N-((3S,4R)-1-(4-cyanobenzyl)-3-fluoropiperidin-4-yl)-6-(4-(4-(trifluoromethylsulfonyl)phenoxy)piperidine-1-carbonyl)nicotinamide]	< 500 nM
N#Cc1ccc(CN2CCC(NC(=O)c3ccc(C(=O)N4CCC(Oc5ccc(S(F)(F)(F)(F)F)cc5)CC4)nc3)CC2)cc1 [Compound 493, N-(1-(4-cyanobenzyl)piperidin-4-yl)-6-(4-(4-(pentafluorosulfanyl)phenoxy)piperidine-1-carbonyl)nicotinamide]	< 500 nM
O=C(Nc1ccc(Oc2ccc(F)cc2)nc1)c1ccc(C(=O)N2CCC(Oc3ccc(F)cc3F)CC2)nc1 [Compound 343, 6-(4-(2,4-difluorophenoxy)piperidine-1-carbonyl)-N-(6-(4-fluorophenoxy)pyridin-3-yl)nicotinamide]	< 500 nM
CS(=O)(=O)c1ccc(C(=O)C2CCN(C(=O)c3ccc(C(=O)NC4CCN(Cc5ccc(N6CCCC6)cc5)CC4)cn3)CC2)cc1 [Compound 229, 6-(4-(4-(methylsulfonyl)benzoyl)piperidine-1-carbonyl)-N-(1-(4-(pyrrolidin-1-yl)benzyl)piperidin-4-yl)nicotinamide]	1000 to 5000 nM
O=C(NC1CCN(Cc2ccc(F)cc2)CC1)c1ccc(C(=O)N2CCC(C(=O)c3ccc(F)cc3)CC2)cn1 [Compound 181, 5-(4-(4-fluorobenzoyl)piperidine-1-carbonyl)-N-(1-(4-fluorobenzyl)piperidin-4-yl)picolinamide]	< 500 nM
O=C(c1ccc(Nc2ccc(Oc3ccccc3)cc2)nc1)N1CCN(Cc2ccc(F)cc2)CC1 [Compound 34, (4-(4-fluorobenzyl)piperazin-1-yl)(6-(4-phenoxyphenylamino)pyridin-3-yl)methanone]	1000 to 5000 nM
N#Cc1ccc(CN2CCC(NC(=O)c3ccc(C(=O)N4CC(OCc5ccc(F)cc5)C4)cn3)CC2)cc1 [Compound 307, N-(1-(4-cyanobenzyl)piperidin-4-yl)-5-(3-(4-fluorobenzyloxy)azetidine-1-carbonyl)picolinamide]	500 to 1000 nM
N#Cc1ccc(OC2CN(C(=O)c3ccc(C(=O)NC4CCN(Cc5cc(F)cc(F)c5)CC4)nc3)C2)cc1 [Compound 313, 5-(3-(4-cyanophenoxy)azetidine-1-carbonyl)-N-(1-(3,5-difluorobenzyl)piperidin-4-yl)picolinamide]	< 500 nM
N#Cc1ccc(CN2CCC(NC(=O)c3ccc(C(=O)N4CCC(Oc5ccc(NS(=O)(=O)C6CC6)cc5)CC4)nc3)CC2)cc1 [Compound 448, N-(1-(4-cyanobenzyl)piperidin-4-yl)-6-(4-(4-(cyclopropanesulfonamido)phenoxy)piperidine-1-carbonyl)nicotinamide]	1000 to 5000 nM
N#Cc1ccc(OC2CCN(C(=O)c3ccc(C(=O)NC4CCN(Cc5ccc(N6CCCC6)cc5)CC4)cn3)CC2)cc1 [Compound 336, 6-(4-(4-cyanophenoxy)piperidine-1-carbonyl)-N-(1-(4-(pyrrolidin-1-yl)benzyl)piperidin-4-yl)nicotinamide]	< 500 nM
COc1ccc(OC2CCN(C(=O)c3ccc(C(=O)N[C@H]4CC[C@H](Oc5ccc(C#N)cc5)CC4)nc3)CC2)cc1 [Compound 172, N-((trans)-4-(4-cyanophenoxy)cyclohexyl)-5-(4-(4-methoxyphenoxy)piperidine-1-carbonyl)picolinamide]	< 500 nM
N#Cc1ccc(CN2CCC(NC(=O)c3ccc(C(=O)N4CCC(Oc5ccc(C#N)c(Cl)c5)CC4)cn3)CC2)cc1 [Compound 156, 5-(4-(3-chloro-4-cyanophenoxy)piperidine-1-carbonyl)-N-(1-(4-cyanobenzyl)piperidin-4-yl)picolinamide]	< 500 nM
CC(=O)c1ccc(OC2CCN(C(=O)c3ccc(C(=O)Nc4ccc(Oc5ccc(F)cc5)nc4)nc3)CC2)cc1 [Compound 359, 5-(4-(4-acetylphenoxy)piperidine-1-carbonyl)-N-(6-(4-fluorophenoxy)pyridin-3-yl)picolinamide]	< 500 nM
COc1ccc(N2CCC(NC(=O)c3ccc(C(=O)N4CCC(Oc5ccc(C#N)cc5)CC4)nc3)CC2)cc1 [Compound 423, 6-(4-(4-cyanophenoxy)piperidine-1-carbonyl)-N-(1-(4-methoxyphenyl)piperidin-4-yl)nicotinamide]	< 500 nM
